Assay results taken from patent US11083725B2 (priority 2014, dated 2021).

Tested on: NHBE cells
Experiment: Biolog metabolic array: substrate use by NHBE cells with or without CA09 infection
Type: cell-based, human
Conditions: for Substrate use, 590 nm absorbance normalized to zero hour, 0 hr: Biolog PMM2, 0 hr; for Substrate use, 590 nm absorbance normalized to zero hour, 1 hr: Biolog PMM2, 1 hr; for Substrate use, 590 nm absorbance normalized to zero hour, 5 hr: Biolog PMM2, 5 hr; for Substrate use, 590 nm absorbance normalized to zero hour, 7 hr: Biolog PMM2, 7 hr
[1] = Control (uninfected) NHBE cells
[2] = Virus (CA09-infected, MOI 1) NHBE cells
[3] = Virus: CA09-infected NHBE cells, MOI 1, Biolog PMM2
[4] = Virus (CA09, MOI 1) infected NHBE cells

| Compound | 590 nm absorbance normalized to zero hour (substrate use), 0 hr [1] | 590 nm absorbance normalized to zero hour (substrate use), 1 hr [1] | 590 nm absorbance normalized to zero hour (substrate use), 2 hr [1] | 590 nm absorbance normalized to zero hour (substrate use), 3 hr [1] | 590 nm absorbance normalized to zero hour (substrate use), 4 hr [1] | 590 nm absorbance normalized to zero hour (substrate use), 6 hr [1] | 590 nm absorbance normalized to zero hour (substrate use), 8 hr [1] | 590 nm absorbance normalized to zero hour (substrate use), 9 hr [1] | 590 nm absorbance normalized to zero hour (substrate use), 10 hr [1] | 590 nm absorbance normalized to zero hour (substrate use), 11 hr [1] | Substrate use, 590 nm absorbance normalized to zero hour, 0 hr [1] | Substrate use, 590 nm absorbance normalized to zero hour, 1 hr [1] | Substrate use, 590 nm absorbance normalized to zero hour, 5 hr [1] | Substrate use, 590 nm absorbance normalized to zero hour, 7 hr [1] | 590 nm absorbance normalized to zero hour (substrate use), 0 hr [2] | 590 nm absorbance normalized to zero hour (substrate use), 1 hr [2] | 590 nm absorbance normalized to zero hour (substrate use), 2 hr [2] | 590 nm absorbance normalized to zero hour (substrate use), 3 hr [2] | 590 nm absorbance normalized to zero hour (substrate use), 4 hr [2] | 590 nm absorbance normalized to zero hour (substrate use), 6 hr [2] | also measured |
| --- | --- | --- | --- | --- | --- | --- | --- | --- | --- | --- | --- | --- | --- | --- | --- | --- | --- | --- | --- | --- | --- |
| C[C@@H](O)CC(=O)O [b-Hydroxy-Butyric Acid] | 1.00 | 1.65 | 2.08 | 2.16 | 2.31 | 2.37 | 2.68 | 2.90 | 3.02 | 7.04 | 1.00 | 1.65 | 2.75 | 2.49 | 1.00 | 1.78 | 2.31 | 2.61 | 2.77 | 3.34 | 590 nm absorbance normalized to zero hour (substrate use), 5 hr [2]: 3.16; 590 nm absorbance normalized to zero hour (substrate use), 7 hr [2]: 3.47; 590 nm absorbance normalized to zero hour (substrate use), 8 hr [2]: 3.62; 590 nm absorbance normalized to zero hour (substrate use), 9 hr [2]: 3.79; 590 nm absorbance normalized to zero hour (substrate use), 10 hr [2]: 3.87; 590 nm absorbance normalized to zero hour (substrate use), 11 hr [2]: 3.29; 590 nm absorbance normalized to zero hour (substrate use), 0 hr [3]: 1.00; 590 nm absorbance normalized to zero hour (substrate use), 1 hr [3]: 1.78; 590 nm absorbance normalized to zero hour (substrate use), 2 hr [3]: 2.31; 590 nm absorbance normalized to zero hour (substrate use), 3 hr [3]: 2.61; 590 nm absorbance normalized to zero hour (substrate use), 4 hr [3]: 2.77; 590 nm absorbance normalized to zero hour (substrate use), 5 hr [3]: 3.16; 590 nm absorbance normalized to zero hour (substrate use), 6 hr [3]: 3.34; 590 nm absorbance normalized to zero hour (substrate use), 7 hr [3]: 3.47; 590 nm absorbance normalized to zero hour (substrate use), 8 hr [3]: 3.62; 590 nm absorbance normalized to zero hour (substrate use), 9 hr [3]: 3.79; 590 nm absorbance normalized to zero hour (substrate use), 10 hr [3]: 3.87; 590 nm absorbance normalized to zero hour (substrate use), 11 hr [3]: 3.29 |
| CO[C@@H]1O[C@H](CO)[C@H](O)[C@H](O)[C@H]1O [b-Methyl-D-Galactoside] | 1.00 | 0.52 | 0.68 | 0.78 | 0.87 | 1.28 | 1.24 | 1.36 | 1.54 | 1.61 | 1.00 | 0.52 | 1.05 | 1.17 | 1.00 | 0.74 | 0.95 | 1.11 | 1.18 | 1.45 | 590 nm absorbance normalized to zero hour (substrate use), 5 hr [2]: 1.36; 590 nm absorbance normalized to zero hour (substrate use), 7 hr [2]: 1.52; 590 nm absorbance normalized to zero hour (substrate use), 8 hr [2]: 1.60; 590 nm absorbance normalized to zero hour (substrate use), 9 hr [2]: 1.76; 590 nm absorbance normalized to zero hour (substrate use), 10 hr [2]: 1.81; 590 nm absorbance normalized to zero hour (substrate use), 11 hr [2]: 1.96; 590 nm absorbance normalized to zero hour (substrate use), 0 hr [3]: 1.00; 590 nm absorbance normalized to zero hour (substrate use), 1 hr [3]: 0.74; 590 nm absorbance normalized to zero hour (substrate use), 2 hr [3]: 0.95; 590 nm absorbance normalized to zero hour (substrate use), 3 hr [3]: 1.11; 590 nm absorbance normalized to zero hour (substrate use), 4 hr [3]: 1.18; 590 nm absorbance normalized to zero hour (substrate use), 5 hr [3]: 1.36; 590 nm absorbance normalized to zero hour (substrate use), 6 hr [3]: 1.45; 590 nm absorbance normalized to zero hour (substrate use), 7 hr [3]: 1.52; 590 nm absorbance normalized to zero hour (substrate use), 8 hr [3]: 1.60; 590 nm absorbance normalized to zero hour (substrate use), 9 hr [3]: 1.76; 590 nm absorbance normalized to zero hour (substrate use), 10 hr [3]: 1.81; 590 nm absorbance normalized to zero hour (substrate use), 11 hr [3]: 1.96 |
| CO[C@@H]1O[C@H](CO)[C@@H](O)[C@H](O)[C@H]1O [b-Methyl-D-Glucoside] | 1.00 | 1.32 | 1.80 | 1.84 | 2.02 | 1.04 | 3.05 | 3.33 | 3.70 | 4.24 | 1.00 | 1.32 | 2.32 | 2.85 | 1.00 | 2.00 | 2.80 | 3.24 | 3.45 | 4.32 | Substrate use, 590 nm absorbance normalized to zero hour, 0 hr [4]: 1.00; Substrate use, 590 nm absorbance normalized to zero hour, 1 hr [4]: 2.00; Substrate use, 590 nm absorbance normalized to zero hour, 5 hr [4]: 3.99; Substrate use, 590 nm absorbance normalized to zero hour, 7 hr [4]: 4.57; 590 nm absorbance normalized to zero hour (substrate use), 8 hr [2]: 4.86; 590 nm absorbance normalized to zero hour (substrate use), 9 hr [2]: 5.41; 590 nm absorbance normalized to zero hour (substrate use), 10 hr [2]: 5.67; 590 nm absorbance normalized to zero hour (substrate use), 11 hr [2]: 6.22 |
| CO[C@@H]1OC[C@@H](O)[C@H](O)[C@H]1O [b-Methyl-D-Xyloside] | 1.00 | 1.53 | 6.40 | 1.59 | 1.73 | 1.14 | 4.02 | 2.33 | 2.61 | 3.03 | 1.00 | 1.53 | 2.08 | 4.46 | 1.00 | 1.92 | 2.38 | 2.79 | 2.82 | 3.28 | 590 nm absorbance normalized to zero hour (substrate use), 5 hr [2]: 3.12; 590 nm absorbance normalized to zero hour (substrate use), 7 hr [2]: 3.39; 590 nm absorbance normalized to zero hour (substrate use), 8 hr [2]: 3.52; 590 nm absorbance normalized to zero hour (substrate use), 9 hr [2]: 3.77; 590 nm absorbance normalized to zero hour (substrate use), 10 hr [2]: 3.87; 590 nm absorbance normalized to zero hour (substrate use), 11 hr [2]: 4.01; 590 nm absorbance normalized to zero hour (substrate use), 0 hr [3]: 1.00; 590 nm absorbance normalized to zero hour (substrate use), 1 hr [3]: 1.92; 590 nm absorbance normalized to zero hour (substrate use), 2 hr [3]: 2.38; 590 nm absorbance normalized to zero hour (substrate use), 3 hr [3]: 2.79; 590 nm absorbance normalized to zero hour (substrate use), 4 hr [3]: 2.82; 590 nm absorbance normalized to zero hour (substrate use), 5 hr [3]: 3.12; 590 nm absorbance normalized to zero hour (substrate use), 6 hr [3]: 3.28; 590 nm absorbance normalized to zero hour (substrate use), 7 hr [3]: 3.39; 590 nm absorbance normalized to zero hour (substrate use), 8 hr [3]: 3.52; 590 nm absorbance normalized to zero hour (substrate use), 9 hr [3]: 3.77; 590 nm absorbance normalized to zero hour (substrate use), 10 hr [3]: 3.87; 590 nm absorbance normalized to zero hour (substrate use), 11 hr [3]: 4.01 |
